Measured values as given in patent publication US10077261B2, “Imidazolin-5-one derivative useful as FASN inhibitors for the treatment of cancer” (Janssen Pharmaceutica NV, priority 2012, dated 2018).

What was measured:
[1] = target: T1, hFASN enzyme (full length) (Homo sapiens, UniProt P49327); assay: Fatty Acid Synthase (FASN) inhibition scintillation proximity assay; format: biochemical; details: for inhibition at 10 µM: read-out: Human FASN % inhibition @ 10 μM, 10 μM test compound; for IC50: read-out: Human FASN pIC50 (converted)
T1 construct: 10 μL hFASN enzyme (full length, 300 ng, purified in house); made in house
Method in brief: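 Proximity read-out: hydrophobic ^3H-palmitate formed from ^3H-acetyl-CoA and malonyl-CoA binds streptavidin imaging beads, imaged at 610±20 nm at least 24 h after stopping. Enzyme was in-house purified full-length hFASN, 300 ng, in pH 7.5 phosphate/DTT buffer; compound series 30 μM down to 0.01 μM, normalized to controls, 4-parameter fit.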

A2780 ovarian cells [2] = assay: A2780 ovarian cell proliferation assay in lipid reduced medium, with palmitate (MTT); format: cell-based; details: Homo sapiens, A2780, 96 h; read-out: pIC50 A2780 Ovarian Cell, With Palmitate (converted)
Method in brief: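 In this palmitate-supplemented format, compound dilutions (30 μM down to 0.01 μM) are added to cells in lipid-reduced serum with 25 μM palmitate, 0.2% fatty-acid-free BSA and 0.25% ethanol. After four days (96 h) MTT absorbance at 544 nm is recorded and fitted by minimum sum of squares.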

A2780 ovarian cells [3] = assay: A2780 ovarian cell proliferation assay in lipid reduced medium, without palmitate (MTT); format: cell-based; details: Homo sapiens, A2780, 96 h; read-out: pIC50 A2780 Ovarian Cell, Without Palmitate (converted)
[4] = tested on: LNCaP-Vancouver prostate cells; assay: In vitro LNCaP Vancouver prostate cell proliferation assay in lipid reduced medium; format: cell-based; details: read-out: pIC50 LNCaP_Vancouver prostate cell (converted)
[5] = tested on: PC-3M-Luc-C6 prostate cells; assay: In vitro PC-3M-Luc-C6 prostate cell proliferation assay in lipid reduced medium; format: cell-based; details: 96 h, read-out: pIC50 PC-3M-Luc-C6 prostate cell (converted)
[6] = target: Fatty Acid Synthase Keto-reductase Domain (FASN KR) (Homo sapiens, UniProt P49327); assay: Fatty Acid Synthase keto-reductase domain (FASN KR) inhibition, NADPH oxidation at 340 nm
Sequence of Fatty Acid Synthase Keto-reductase Domain (FASN KR) (P49327 whole entry, the tested form may be a part): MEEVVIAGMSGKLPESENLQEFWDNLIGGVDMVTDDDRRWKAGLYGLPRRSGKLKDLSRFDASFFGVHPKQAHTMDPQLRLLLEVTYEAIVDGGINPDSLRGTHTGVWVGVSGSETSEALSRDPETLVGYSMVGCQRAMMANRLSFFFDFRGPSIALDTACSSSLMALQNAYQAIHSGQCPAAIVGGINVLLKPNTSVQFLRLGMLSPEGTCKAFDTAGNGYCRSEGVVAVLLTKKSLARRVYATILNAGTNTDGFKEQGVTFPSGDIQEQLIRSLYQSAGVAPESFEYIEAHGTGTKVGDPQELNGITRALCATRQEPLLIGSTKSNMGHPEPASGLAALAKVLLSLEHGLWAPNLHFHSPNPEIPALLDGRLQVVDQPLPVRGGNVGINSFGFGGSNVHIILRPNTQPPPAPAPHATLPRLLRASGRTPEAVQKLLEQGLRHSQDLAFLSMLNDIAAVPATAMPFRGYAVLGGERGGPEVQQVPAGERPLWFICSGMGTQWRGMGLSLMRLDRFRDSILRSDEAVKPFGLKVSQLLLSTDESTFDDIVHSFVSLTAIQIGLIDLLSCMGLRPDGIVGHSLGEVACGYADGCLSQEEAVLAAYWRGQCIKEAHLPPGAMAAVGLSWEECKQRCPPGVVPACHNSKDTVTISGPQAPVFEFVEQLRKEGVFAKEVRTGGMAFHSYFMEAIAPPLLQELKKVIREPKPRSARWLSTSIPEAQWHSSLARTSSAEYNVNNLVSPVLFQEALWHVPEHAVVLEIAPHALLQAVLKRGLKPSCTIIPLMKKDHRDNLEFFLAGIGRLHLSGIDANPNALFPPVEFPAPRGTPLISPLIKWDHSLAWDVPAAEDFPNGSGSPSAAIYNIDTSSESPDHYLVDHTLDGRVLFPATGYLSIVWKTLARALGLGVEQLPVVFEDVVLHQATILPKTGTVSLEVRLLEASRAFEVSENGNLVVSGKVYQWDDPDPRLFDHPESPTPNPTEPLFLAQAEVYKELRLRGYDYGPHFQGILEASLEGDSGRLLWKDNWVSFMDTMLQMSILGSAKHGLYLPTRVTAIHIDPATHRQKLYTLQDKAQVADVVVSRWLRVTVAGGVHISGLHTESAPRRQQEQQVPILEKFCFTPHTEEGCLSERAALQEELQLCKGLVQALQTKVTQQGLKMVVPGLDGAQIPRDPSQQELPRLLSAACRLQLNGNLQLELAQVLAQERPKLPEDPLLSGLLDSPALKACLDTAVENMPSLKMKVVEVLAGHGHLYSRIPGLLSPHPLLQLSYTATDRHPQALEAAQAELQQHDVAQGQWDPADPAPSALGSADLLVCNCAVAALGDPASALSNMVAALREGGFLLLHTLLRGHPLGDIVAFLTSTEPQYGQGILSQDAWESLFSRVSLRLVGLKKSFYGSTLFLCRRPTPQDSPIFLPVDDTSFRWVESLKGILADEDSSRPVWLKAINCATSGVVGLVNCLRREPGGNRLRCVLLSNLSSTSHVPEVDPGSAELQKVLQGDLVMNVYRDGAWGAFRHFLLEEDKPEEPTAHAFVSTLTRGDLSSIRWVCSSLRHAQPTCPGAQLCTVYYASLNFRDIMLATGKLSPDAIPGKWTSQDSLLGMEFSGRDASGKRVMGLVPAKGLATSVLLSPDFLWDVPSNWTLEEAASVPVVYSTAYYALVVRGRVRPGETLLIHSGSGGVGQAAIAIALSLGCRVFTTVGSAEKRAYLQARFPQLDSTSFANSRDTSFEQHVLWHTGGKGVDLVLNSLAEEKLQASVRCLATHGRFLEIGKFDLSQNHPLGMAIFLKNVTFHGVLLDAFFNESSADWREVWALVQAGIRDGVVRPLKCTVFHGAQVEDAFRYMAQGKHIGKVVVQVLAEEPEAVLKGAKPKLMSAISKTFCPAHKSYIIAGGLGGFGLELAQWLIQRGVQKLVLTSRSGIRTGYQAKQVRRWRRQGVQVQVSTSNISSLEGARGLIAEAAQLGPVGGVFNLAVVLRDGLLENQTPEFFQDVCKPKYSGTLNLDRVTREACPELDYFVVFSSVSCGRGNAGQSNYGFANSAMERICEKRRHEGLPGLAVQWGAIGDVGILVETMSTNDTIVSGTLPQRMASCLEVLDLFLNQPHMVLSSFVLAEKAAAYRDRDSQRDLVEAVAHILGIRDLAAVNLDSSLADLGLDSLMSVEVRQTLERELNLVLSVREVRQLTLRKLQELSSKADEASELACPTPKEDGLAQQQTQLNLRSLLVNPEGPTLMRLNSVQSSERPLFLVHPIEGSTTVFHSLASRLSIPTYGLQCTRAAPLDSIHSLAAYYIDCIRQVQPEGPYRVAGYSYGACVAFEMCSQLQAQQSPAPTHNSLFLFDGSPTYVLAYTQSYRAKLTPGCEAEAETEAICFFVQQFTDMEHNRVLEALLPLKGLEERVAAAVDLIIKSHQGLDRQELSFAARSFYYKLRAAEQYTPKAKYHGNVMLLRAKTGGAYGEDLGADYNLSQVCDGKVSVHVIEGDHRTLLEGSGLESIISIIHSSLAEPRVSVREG
Procedure: After 20 minutes incubation at room temperature the plate was measured again (T2).
The decrease in absorbance was calculated as (Absorbance before incubation T1)−(Absorbance following incubation T2).
A plot of Controlmin versus test compound concentration was fitted to a 4-parameter logistic curve using a non-linear least squares regression method.

T1 sequence (P49327 whole entry): as the sequence (P49327 whole entry, the tested form may be a part) above

Row | Compound | inhibition at 10 µM [1] | IC50 [1] | IC50 (A2780 ovarian cells [2]) | IC50 (A2780 ovarian cells [3]) | IC50 [4] | IC50 [5] | IC50 [6]
1 | O=C(C1CC1)N1CC[C@@H](CN2C(=O)C3(CC3)N=C2c2ccc(-c3ccc4[nH]ccc4c3)cc2F)C1 [compound 246, (R)-6-((1-(cyclopropanecarbonyl)pyrrolidin-3-yl)methyl)-5-(2-fluoro-4-(1H-indol-5-yl)phenyl)-4,6-diazaspiro[2.4]hept-4-en-7-one] | 101% | 17 nM | > 10000 nM | ~5.01 nM | 15.5 nM | 4.79 nM | 38 nM
2 | O=C(C1CC1)N1CC[C@@H](CN2C(=O)C3(CC3)N=C2c2ccc(-c3ccc4[nH]ccc4c3)cn2)C1 [compound 341, (R)-5-(5-(1H-indol-5-yl)pyridin-2-yl)-6-((1-(cyclopropanecarbonyl)pyrrolidin-3-yl)methyl)-4,6-diazaspiro[2.4]hept-4-en-7-one] | 102% | 64.6 nM | > 6170 nM | 132 nM | 525 nM | 126 nM | 209 nM
3 | O=C(C1CC1)N1CC(CN2C(=O)C3(CC3)N=C2c2ccc(-c3cccc(NS(=O)(=O)C4CC4)c3)cc2F)C1 [compound 619, N-[4′-(6-{[1-(Cyclopropylcarbonyl)azetidin-3-yl]methyl}-7-oxo-4,6-diazaspiro[2.4]hept-4-en-5-yl)-3′-fluorobiphenyl-3-yl]cyclopropanesulfonamide] | 101% | 186 nM | > 10000 nM | ~224 nM | 3240 nM | 631 nM | 380 nM
4 | O=C(C1CC1)N1CC[C@@H](CN2C(=O)C3(CC3)N=C2c2ccc(-c3ccc4c(Cl)nccc4c3)cc2)C1 [compound 479, 5-[4-(1-Chloroisoquinolin-6-yl)phenyl]-6-{[(3R)-1-(cyclopropylcarbonyl)pyrrolidin-3-yl]methyl}-4,6-diazaspiro[2.4]hept-4-en-7-one] | 95% | 162 nM | > 10000 nM | 692 nM | 933 nM | 302 nM | 447 nM
5 | CC(O)C(=O)N1CC[C@@H](CN2C(=O)C3(CCOCC3)N=C2c2ccc(-c3ccc4cccnc4c3)cc2)C1 (stereo partly drawn) [compound 662, 3-{[(3R)-1-(2-Hydroxypropanoyl)pyrrolidin-3-yl]methyl}-2-(4-quinolin-7-ylphenyl)-8-oxa-1,3-diazaspiro[4.5]dec-1-en-4-one] | 98% | 302 nM | > 10000 nM | 457 nM | 2880 nM | 708 nM | 617 nM
6 | Cc1cc(-c2ccc3c(c2)CCO3)ccc1C1=NC2(CCCC2)C(=O)N1C[C@@H]1CCN(C(=O)C2CC2)C1 [compound 884, (R)-3-((1-(cyclopropanecarbonyl)pyrrolidin-3-yl)methyl)-2-(4-(2,3-dihydrobenzofuran-5-yl)-2-methylphenyl)-1,3-diazaspiro[4.4]non-1-en-4-one] | 100% | 288 nM | > 10000 nM | ~2140 nM | 3020 nM | ~1820 nM | 741 nM
7 | O=C(N1CC(CN2C(=O)C3(CC3)N=C2c2ccc(-c3ccc4ccccc4c3)cc2F)C1)C1(O)CC1 [compound 372, 5-(2-fluoro-4-(naphthalen-2-yl)phenyl)-6-((1-(1-hydroxycyclopropanecarbbonyl)azetidin-3-yl)methyl)-4,6-diazaspiro[2.4]hept-4-en-7-one] | 101% | 16.2 nM | > 10000 nM | 5.01 nM | 75.9 nM | 13.2 nM | 49 nM
8 | Cn1nccc1-c1ccc(-c2ccc(C3=NC4(CC4)C(=O)N3C[C@@H]3CCN(C(=O)C4(O)CC4)C3)c(F)c2)cc1 [compound 371, (R)-5-(3-fluoro-4′-(1-methyl-1H-pyrazol-5-yl)-[1,1′-biphenyl]-4-yl)-6-((1-(1-hydroxycyclopropanecarbonyl)pyrrolidin-3-yl)methyl)-4,6-diazaspiro[2.4]hept-4-en-7-one] | 101% | 56.2 nM | 8130 nM | 72.4 nM | 490 nM | 55 nM | 129 nM
9 | Cc1cc(-c2ccc3cnn(C)c3c2)ccc1C1=NC2(CC2)C(=O)N1CC1CN(C(=O)C2(C)CC2)C1 [compound 335, 5-(2-methyl-4-(1-methyl-1H-indazol-6-yl)phenyl)-6-((1-(1-methylcyclopropanecarbonyl)azetidin-3-yl)methyl)-4,6-diazaspiro[2.4]hept-4-en-7-one] | 105% | 64.6 nM | > 10000 nM | 138 nM | 603 nM | ~115 nM | 166 nM
10 | Cn1ncc2cc(-c3ccc(C4=NC5(CC5)C(=O)N4CC4CN(C(=O)C5(F)CC5)C4)c(F)c3)ccc21 [compound 637, 6-({1-[(1-Fluorocyclopropyl)carbonyl]azetidin-3-yl}methyl)-5-[2-fluoro-4-(1-methyl-1H-indazol-5-yl)phenyl]-4,6-diazaspiro[2.4]hept-4-en-7-one] | 99% | 120 nM | > 10000 nM | 85.1 nM | 1820 nM | ~234 nM | 871 nM
11 | Cc1cc(-c2ccc3c(cnn3C)c2)ccc1C1=NC2(CC2)C(=O)N1CC1CN(C(=O)C2CCO2)C1 (centres unmarked) [compound 545, 5-[2-Methyl-4-(1-methyl-1H-indazol-5-yl)phenyl]-6-{[1-(oxetan-2-ylcarbonyl)azetidin-3-yl]methyl}-4,6-diazaspiro[2.4]hept-4-en-7-one] | 101% | 110 nM | > 10000 nM | 91.2 nM | 269 nM | 126 nM | 257 nM
12 | O=C(C1CC1)N1CC[C@@H](CN2C(=O)C3(CC3)N=C2c2ccc(-c3n[nH]c4ccccc34)cc2F)C1 [compound 529, 6-{[(3R)-1-(Cyclopropylcarbonyl)pyrrolidin-3-yl]methyl}-5-[2-fluoro-4-(1H-indazol-3-yl)phenyl]-4,6-diazaspiro[2.4]hept-4-en-7-one] | 96% | 102 nM | > 10000 nM | ~83.2 nM | 724 nM | ~83.2 nM | 155 nM
13 | O=C(C1CC1)N1CC[C@@H](CN2C(=O)C3(CC3)N=C2c2ccc(-c3ccc4occc4c3)nc2)C1 [compound 420, 5-[6-(1-Benzofuran-5-yl)pyridin-3-yl]-6-{[(3R)-1-(cyclopropylcarbonyl)pyrrolidin-3-yl]methyl}-4,6-diazaspiro[2.4]hept-4-en-7-one] | 92% | 490 nM | > 10000 nM | ~2090 nM | 6460 nM | 1660 nM | 977 nM
14 | Cc1sc2ccc(-c3ccc(C4=NC5(CCN(CCO)CC5)C(=O)N4C[C@@H]4CCN(C(=O)C5CC5)C4)cc3)cc2c1C [compound 742, 3-{[(3R)-1-(Cyclopropylcarbonyl)pyrrolidin-3-yl]methyl}-2-[4-(2,3-dimethyl-1-benzothiophen-5-yl)phenyl]-8-(2-hydroxyethyl)-1,3,8-triazaspiro[4.5]dec-1-en-4-one] | 99% | 191 nM | ~6030 nM | ~2510 nM | ~4470 nM | ~1740 nM | 355 nM
15 | CC(C)Cn1cc(-c2ccc(-c3ccc(C4=NC5(CC5)C(=O)N4CC4CN(C(=O)C5CC5)C4)cc3)cc2)cn1 [compound 544, 6-{[1-(Cyclopropylcarbonyl)azetidin-3-yl]methyl}-5-{4′-[1-(2-methylpropyl)-1H-pyrazol-4-yl]biphenyl-4-yl}-4,6-diazaspiro[2.4]hept-4-en-7-one] | 98% | 204 nM | 1620 nM | 52.5 nM | 776 nM | 141 nM | 724 nM
16 | Cc1cc2cc(-c3ccc(C4=NC5(CC5)C(=O)N4C[C@@H]4CCN(C(=O)C5(O)CC5)C4)c(F)c3)ccc2s1 [compound 354, (R)-5-(2-fluoro-4-(2-methylbenzo[b]thiophen-5-yl)phenyl)-6-((1-(1-hydroxycyclopropanecarbonyl)pyrrolidin-3-yl)methyl)-4,6-diazaspiro[2.4]hept-4-en-7-one] | 100% | 50.1 nM | > 10000 nM | 30.9 nM | 245 nM | 35.5 nM | 112 nM
17 | O=C(C1CC1)N1CC[C@@H](CN2C(=O)C3(CCOCC3)N=C2c2ccc(-c3ccc4cccnc4c3)cc2)C1 [compound 661, 3-{[(3R)-1-(Cyclopropylcarbonyl)pyrrolidin-3-yl]methyl}-2-(4-quinolin-7-ylphenyl)-8-oxa-1,3-diazaspiro[4.5]dec-1-en-4-one] | 95% | 58.9 nM | > 10000 nM | 42.7 nM | 191 nM | ~79.4 nM | 132 nM
